No end group written: not given here. *: point of attachment. For = O=C*
Experiments:
Format in all cases: cell-based, human
HL60 cells [1] = test: ROS production by flow cytometry, HL60 cells; conditions: 72 h; for ROS production (MFI): HL60, 2D culture on HS5 stromal cells; for ROS production (mean fluorescence intensity): HL60, monoculture
Experimental: (§1) A panel of human myeloid leukemia cell lines (HL60, K562, KG1a, THP1 and U937) and HS-5 mesenchymal stromal cells lineage were cultured in Roswell Park Memorial Institute medium-1640 (RPMI; Sigma) containing 10% Fetal Bovine Serum (Gibco), glutamine (2 mM; Sigma), penicillin (100 μg/mL; Sigma), streptomycin (100 μg/mL; Sigma), and amphotericin B (0.25 μg/mL; Gibco). The cells were maintained in a humidified atmosphere at 37° C. and 5% CO2 and the experiments were performed when they reached exponential growth. For the assays, cells were seeded on a 24-well plate and treated or not with Foxy-5 for 72 hours.
Cells treated with Foxy or with vehicle were collected and intracellular ROS generation was measured by flow cytometry following staining with DCFDA ([…]; Sigma). Acquisition of cells was performed on a FACScalibur flow cytometer (BD) and analysis was carried out using the FlowJo software.
Leukemia cell lines were treated for 72 h with Foxy-5, at doses of 50 and 100 μM, or vehicle, stained with DCFHA dye, and analyzed by flow cytometry.

U937 cells = test: Cell growth assay, U937 cells; conditions: Foxy-5 100 μM, 72 h
Experimental: as §1
Cells treated with Foxy or with vehicle were collected and cell number was evaluated by manual counting in monoculture and by microscopy with Image J software analysis in 2D culture.
Next, we evaluated the proliferation rates since this process is modulated by ROS. We treated the cells with Foxy-5 (100 μM) or with vehicle (DMSO) during 72 hours, and then cell growth was analyzed by counting the cells in monoculture, manually, or by the Image J software analysis of the 2D cultures. […] Similar results were obtained in the 2D culture system using leukemia cells and HS-5 mesenchymal stromal cells.

HL60 cells [2] = test: Transwell chemotaxis assay toward CXCL12, HL60 cells; conditions: HL60, Foxy-5 100 μM 72 h pretreatment, CXCL12 100 ng/mL, 24 h
Experimental: Leukemic cell lines, pretreated or not with Foxy-5 (72 hours of stimulation) were tested for chemotaxis in Transwell-based assays for Chemotaxis (6.5 mm diameter, 8 μm pore size; Corning). Polycarbonate membranes were incubated with poly-L-lysine (1 mg/mL) for 1 hour at 37° C. followed by saline buffer washing. Briefly, cells were collected, washed with media containing bovine serum albumin (0.1% BSA; Sigma), and then seeded at a density of 5×10^5 cells into the upper chamber of the transwell. The lower chamber was filled with media containing 0.5% BSA (negative control), media containing 10% FBS (positive control) and media 5 containing 0.5% BSA with CXCL12 (100 ng/ml; Peprotech) (Melo et al., 2014). Following 6 h or 24 h of incubation at 37° C., cells that migrated into the lower chamber were collected, centrifuged, resuspended in saline buffer and counted. The number of migrated cells was expressed as a percentage of the input, i.e., the cells number applied directly to the lower compartment in parallel wells. The migration of cells was normalized to 100%+/−standard deviation (SD) of triplicates (Favaro et al., 2013).
We investigated whether restoring of WNT5A could enable the modulation CXCL12-induced chemotaxis of leukemia cells. […]

HL60 cells [3] = test: Actin polymerization assay, HL60 cells; conditions: HL60, Foxy-5 100 μM 72 h
Experimental: F-actin polymerization was analyzed in treated leukemic cell lines using AlexaFluor 633-labeled phalloidin (A22284, Invitrogen) before and after CXCL12 stimulation. The cells were stimulated with CXCL12 (300 ng/ml; Peprotech) in serum-free media at 37 °C for 30 and 120 seconds. The reaction was stopped by adding 3 volumes of paraformaldehyde (3.7%) at room temperature for 10 min, then washed and permeabilized on ice. Cells were stained with 633-phalloidin (2 mg/mL). Flow cytometric data were analyzed using a FACS flow cytometer (BD) followed by FlowJo software analysis. The F-actin content obtained were normalized calculating the ratio between each stimulated cells-mean fluorescence intensity (MFI) values and the nonstimulated cells MFI from the basal levels of the control cells and expressed as fold change.
Therefore, we performed a flow cytometry analysis to evaluate whether Foxy-5 treatment would be able to disrupt actin polymerization. Leukemia cell lines were treated with Foxy-5 (100 μM) or vehicle during 72 hours, stimulated with CXCL12 (300 ng/ml) for 30 or 120 seconds, and stained with […] for detection of actin polymerization by flow cytometry. […] Thus, a significant reduction of actin polymerization was shown after Foxy-5 treatment when compared to untreated cells after 30 seconds of CXCL12 induction (P<. 001).

KG1a cells = test: Autophagy assay (acridine orange), KG1a cells; conditions: 2D culture, 72 h
Experimental: as §1
Cells treated with Foxy or with vehicle were collected and acids vesicles were measured by flow cytometry following staining with Acridine Orange (0.01 mg/mL; Sigma). Acquisition of cells was performed on a FACScalibur flow cytometer (BD) and analysis was carried out using the FlowJo software 4.
As autophagy is required for sustaining leukemia cell growth by induction of ROS production, we measured the levels of acidic granule formation by flow cytometry after Foxy-5 or vehicle treatment. […]

Foxy-5: Formylated hexapeptide fragment of WNT5A: MDGCEL (SEQ. ID. NO. 3) with methionine in position 1 as N-formyl methionine; WNT5A-mimicking compound (For-MDGCEL; listed as Homo sapiens)
ROS production (MFI) (HL60 cells [1]; Foxy-5 50 μM): 28.52 (range 26.37-30.00) MFI | ROS production (MFI) (HL60 cells [1]; Foxy-5 100 μM): 28.50 (range 25.03-30.30) MFI | ROS production (mean fluorescence intensity) (HL60 cells [1]; Foxy-5 50 μM): 17.45 (range 16.40-19.30) MFI | ROS production (mean fluorescence intensity) (HL60 cells [1]; Foxy-5 100 μM): 10.32 (range 10.10-10.80) MFI | reduced cell growth compared to vehicle treated cells (U937 cells; U937, 2D culture with HS-5 stromal cells): 1.72 fold decrease | reduced cell growth compared to vehicle treated cells (U937 cells; U937, monoculture): 1.75 fold decrease | CXCL12-induced chemotaxis (migrated cells as percentage of the input, average) (HL60 cells [2]): 4.31% | F-actin content following CXCL12 stimulation (HL60 cells [3]; CXCL12 300 ng/ml for 30 seconds): 1.14 fold increase | F-actin content following CXCL12 stimulation (HL60 cells [3]; CXCL12 300 ng/ml for 120 seconds): 1.07 fold increase | autophagy (acidic granule formation, acridine orange, average) (KG1a cells; Foxy-5 50 μM): 27.30 (range 27.20-29.83) MFI | autophagy (acidic granule formation, acridine orange, average) (KG1a cells; Foxy-5 100 μM): 21.55 (range 19.05-22.40) MFI
